Results: paper PMC9279627 (Acta Pharmaceutica Sinica. B, 2021)

Legend:
CYP2C9 [1] = target: T1, CYP2C9 (Homo sapiens, UniProt P11712); format: biochemical; details: for Modulation of CYP2C9 activity in visual high-throughput screen: clinical drugs 10 μmol/L, DDAM 10 μmol/L, HLM, 96-well microplate; for Concentration-dependent inhibitory effect toward CYP2C9: 0.1, 0.5, 1, 10 and 20 μmol/L, DDAM, Fig. 4B
[2] = test system: CYP2J2 in HeLa and HepG2 cells; assay: Confocal fluorescence imaging of CYP2J2 activity by MXMB in living cells; format: cell-based, human; details: Fig. S13
CYP2C9 [3] = target: T1, CYP2C9; details: DDAM 10 μmol/L, Fig. S6

T1 sequence (P11712 whole entry): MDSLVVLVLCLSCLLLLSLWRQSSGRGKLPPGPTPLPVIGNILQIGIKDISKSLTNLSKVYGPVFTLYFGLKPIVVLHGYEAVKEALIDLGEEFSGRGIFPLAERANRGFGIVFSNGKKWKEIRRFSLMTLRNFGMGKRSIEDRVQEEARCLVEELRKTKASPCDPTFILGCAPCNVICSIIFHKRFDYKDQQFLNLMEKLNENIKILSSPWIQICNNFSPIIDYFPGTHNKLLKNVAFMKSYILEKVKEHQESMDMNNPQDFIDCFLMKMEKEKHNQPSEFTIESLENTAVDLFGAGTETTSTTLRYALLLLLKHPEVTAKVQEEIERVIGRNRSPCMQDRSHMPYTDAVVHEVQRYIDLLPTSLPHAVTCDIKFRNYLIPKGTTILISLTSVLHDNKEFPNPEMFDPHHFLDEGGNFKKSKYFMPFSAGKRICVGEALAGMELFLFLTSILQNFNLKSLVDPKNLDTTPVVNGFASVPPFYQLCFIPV

Compound	Modulation of CYP2C9 activity in visual high-throughput screen (CYP2C9 [1])	other results
CCCCCCCCCCCc1cc(=O)c2ccccc2n1C [1-methyl-2-undecyl-4(1H) quinolone]		Inhibitor of CYP2C9 identified from E. rutaecarpa extract (CYP2C9 [1]; DDAM fluorescence assay, pre-HPLC fractions): novel inhibitor
C#C[C@]1(O)CC[C@H]2[C@@H]3CCC4=Cc5oncc5C[C@]4(C)[C@H]3CC[C@@]21C [danazol]		Effect of pre-treatment on intracellular fluorescence of MXMB [2]: remarkable suppression of intracellular fluorescence
Nc1ccc(S(=O)(=O)c2ccc(N)cc2)cc1 [dapsone]	activators	
NCCc1ccc(O)c(O)c1 [dopamine]	activators	
C[C@]12CC[C@@H]3c4ccc(O)cc4CC[C@H]3[C@@H]1CC[C@@H]2O [estradiol]	activators	
Cc1c(OCC(F)(F)F)ccnc1C[S+]([O-])c1nc2ccccc2[nH]1 (stereo not shown) [lansoprazole]	activators	
COC(=O)Nc1nc2ccc(C(=O)c3ccccc3)cc2[nH]1 [mebendazole]	activators	
Clc1ccc(COC(Cn2ccnc2)c2ccc(Cl)cc2Cl)c(Cl)c1 (stereo not shown) [miconazole]	strong inhibitors	Concentration-dependent inhibitory effect toward CYP2C9 (CYP2C9 [1]): significant inhibitory effect
COc1ccc2[nH]c([S+]([O-])Cc3ncc(C)c(OC)c3C)nc2c1 (stereo not shown) [omeprazole]	activators	
COc1ccnc(C[S+]([O-])c2nc3ccc(OC(F)F)cc3[nH]2)c1OC (stereo not shown) [pantoprazole]	activators	
O=C(c1ccc(OCCN2CCCCC2)cc1)c1c(-c2ccc(O)cc2)sc2cc(O)ccc12 [raloxifene]	strong inhibitors	Concentration-dependent inhibitory effect toward CYP2C9 (CYP2C9 [1]): significant inhibitory effect
Nc1ccc(S(=O)(=O)Nc2ccnn2-c2ccccc2)cc1 [sulfaphenazole]	strong inhibitors	Concentration-dependent inhibitory effect toward CYP2C9 (CYP2C9 [1]): significant inhibitory effect; Effect on demethylation of DDAM (CYP2C9 [3]): inhibited
